The values below come from patent publication US20220296676A1 (priority 2020, published 2022).

Structures are written as SMILES. A value given as a limit tells only on which side of the number the result lay.

Usually EC50 stands for the concentration giving half of the maximal effect.

Data set [1] is described as follows: in vitro. Particulars: human.
For data set [2], the system named is human coronavirus (HCoV) 229E. As to the kind of experiment: microbe, parasite or virus in culture. Particulars: MRC5, 72 h.
Data set [3] is described as follows: in vitro. Particulars: human. This is another data set of the same source.

In data set [1], `CCC(CC)COC(=O)[C@H](C)N[P@](=O)(OC[C@H]1O[C@@](C#N)(c2ccc3c(N)ncnn23)[C@H](O)[C@@H]1O)Oc1ccccc1` [Remdesivir, reference compound] displayed a CC50 of 49.2 µM. This molecule also came in with an EC50 in data set [2] of 0.03 µM.

Consider `C/C=C/C[C@@H](C)[C@@H](O)[C@H]1C(=O)N[C@@H](CC)C(=O)N(C)[C@H](SCCN(C)C)C(=O)N(C)[C@@H](CC(C)(C)O)C(=O)N[C@@H](C(C)C)C(=O)N(C)[C@@H](CC(C)C)C(=O)N[C@@H](C)C(=O)N[C@H](C)C(=O)N(C)[C@@H](CC(C)C)C(=O)N(C)[C@@H](CC(C)C)C(=O)N(C)[C@@H](C(C)C)C(=O)N1C` [WS-635], for which the CC50 in data set [3] was greater than 100 µM. The molecule also gave a CC50 at 3 days in data set [1] of 46.8 µM. Besides, the response in data set [2] was half-maximal at 5.16 µM (EC50).
